Laboratory results as given in US9550815B2, “ABC terpenoid transporters and methods of using the same” (priority 2012, dated 2017).

Columns and labels:
G. clavigera WT [1] = assay: Mycelium growth on MEA with monoterpenes; format: cell-based, Grosmannia clavigera; details: for growth delay of G. clavigera WT: 200 μL individual monoterpene or MT; for fungal growth rate, G. clavigera WT: 200 μL monoterpene, linear phase after delay
Method: (§1) Mono- and diterpene treatments were performed on glass petri dishes with the mono- and diterpenes applied to filter paper that was placed in the cover of the petri dish, which was sealed by Duraseal film. Specifically, plugs of actively growing G. clavigera fungal cultures on MEA were transferred into the center of glass petri dishes containing yeast nitrogen base-complete medium (YNB-CM; 0.17% YNB without amino acids, 1.5% granulated agar, 1% maltose, 0.1% PHP, and 0.3% asparagine). Two (2×4 cm) strips of filter paper were placed inside the lid of the plate and 200 μL of individual mono- or diterpenes or a mixture of monoterpenes (MT) were added onto the filter paper. The glass plates were sealed with DuraSeal™ film (Laboratory Sealing Film, VWR, cat #89031-573) and incubated at ˜22° C. in a sealed glass container for 7 days or until the mycelium reached the edge of the plates. Colony diameters were measured daily.
(§2) Colony morphologies and growth rates were examined for G. clavigera WT and mutant Δgcabc-g1 grown on malt extract agar (MEA) in the presence and absence of 200 μL of a mixture of monoterpenes as described in Example 3.A.1. above. Fungal growth rates were calculated (mm/day). Mycelium growth rates were also determined in the presence or absence of 200 μL of individual monoterpenes, including R-(+)-limonene, 3-carene, α-pinene and β-pinene, or 200 μL of a mixture of monoterpenes (R-(+)-limonene, 3-carene, α-pinene and β-pinene at a ratio of 5:3:1:1). Fungal spores were incubated for 3 days on MEA overlaid with cellophane (Amersham Biosciences, cat #80611781); then the young mycelia were treated with individual monoterpenes or a mixture of monoterpenes (200 μL) for 3-4 days before being transferred onto YNB. In YNB, monoterpenes were provided on filter paper as described in Example 3.A.1. and if necessary were re-supplied biweekly until the mycelia covered at least half of the media surface (3-4 weeks). Colony diameters were measured daily. Fungal growth rates were calculated (mm/day). Results were calculated as the average of 5 replicates and standard deviation was calculated.

mutant Δgcabc-g1 [2] = assay: Mycelium growth on MEA with monoterpenes; format: cell-based, Grosmannia clavigera; details: for growth delay of mutant Δgcabc-g1: 200 μL individual monoterpene or MT; for fungal growth rate, mutant Δgcabc-g1 / growth rate of mutant Δgcabc-g1 lower than G. clavigera WT: 200 μL monoterpene; for fungal growth rate, mutant Δgcabc-g1: linear phase after delay
Method: as §1
Agrobacterium GV3101, a laboratory stock, was used to transform G. clavigera. The whole gene open reading frame (ORF) encoding GcABC-G1 in G. clavigera was replaced with the selective gene marker hygromycin B (hph). Gene replacement (deletion) was verified by PCR amplification of adjacent regions, target region and selective marker gene, and copy numbers were determined by southern blot. The G. clavigera GcABC-G1 deletion mutant was designated mutant Δgcabc-g1.
as §2

[3] = system: G. clavigera WT fungal spores; assay: Asexual spore germination and survival with monoterpenes; format: cell-based, Grosmannia clavigera; details: MEA, 200 μL monoterpene; for spore germination inhibition, G. clavigera: counted after 6 days; for spore germination partially reduced, G. clavigera: 6 days, relative to non-treated control
Method: (§3) G. clavigera WT or mutant Δgcabc-g1 fungal spores were collected from 7-14 day old cultures grown on MEA (0.83% Oxoid™ malt extract agar and 0.75% technical agar, pH was adjusted to 5-6). Mycelium debris was removed by filtration (BD Falcon Cell Strainers; cat #08-771-1). Spore concentrations were determined using a haemocytometer and further diluted to ˜2 spores/μL. 100 μL of the spore suspension was spread on MEA in glass plates. For monoterpene treatment, two (2×4 cm) strips of filter paper were placed inside the lid of the plate and 200 μL of a mixture of monoterpenes were added onto the filter paper. For diterpene treatment, 100 μL of the spore suspension was spread on MEA containing 0.01% of a mixture of diterpenes (abietic acid, dehydroabietic acid and isopimaric acid). The glass plates were sealed with DuraSeal™ film (Laboratory Sealing Film, VWR, cat #89031-573) and incubated at ˜22° C. in a sealed glass container. The germinated spores were counted daily; at day 6 the monoterpenes were removed and the MEA plates were further incubated for 4 days to assess the survival of the spores.

[4] = system: mutant Δgcabc-g1 fungal spores; assay: as above; format: cell-based, Grosmannia clavigera
Method: as §3

Wildtype G. clavigera = assay: Growth on YNB with monoterpenes as sole carbon source; format: cell-based, Grosmannia clavigera; details: 200 μL, 4 weeks
Method: (§4) Fungal spores were incubated for 3 days on 1% malt extract agar (MEA) overlaid with cellophane (Amersham Biosciences, cat #80611781), then the young mycelia were treated with a mixture of monoterpenes (200 μL) for 3-4 days before being transferred onto yeast nitrogen base (YNB) medium with a mixture of monoterpenes (MT) as sole carbon source (YNB+MT; […] YNB without amino acids, but with ammonium sulphate) in glass plates. The synthetic monoterpenoid blend contained R-(+)-limonene, 3-carene, α-pinene and β-pinene at a ratio of 5:3:1:1. If necessary monoterpenes were re-supplied biweekly until the mycelia covered at least half of the media surface (3-4 weeks). RNA-seq analysis was performed after 10 days. G. clavigera grown on YNB+1% mannose as the sole carbon source was used as a control.
(§5) Experiments were performed as described in Example 3.A.2. Growth of wildtype G. clavigera and the mutant Δgcabc-g1 was determined utilizing yeast nitrogen base (YNB)+either 10 μL or 200 μL of (+)-limonene, α-pinene or β-pinene. Growth was determined after 4 weeks. Monoterpenes were re-supplied every 2 weeks. Growth on YNB alone was used as a negative control. Growth on YNB+1% mannose was used as a positive control.

Sc-ABC = assay: Yeast cell survival, dilution plate assay; format: cell-based, Saccharomyces cerevisiae; details: for Sc-ABC cells survived relative to Sc-V: one-hour treatment, 5 μL monoterpene, counted after 4 days; for Observation (B) Transformed Sc survival: GcABC-G1-dependent difference, Sc-ABC versus Sc-V; for relative inhibition of the yeast GcABC-G1 transformant by individual monoterpenoids: individual monoterpenoids compared
Method: The survival of Sc-V and Sc-ABC with individual monoterpenes was shown using a dilution plate assay. Overnight yeast cultures grown in SG broth were diluted to an OD600 of 0.2 and further grown to an OD600 of 0.4 at 28° C. The yeast cells were diluted to an appropriate density that was spread on SG media in Petri dishes glass (10^5 per petri dish). The yeast cells were treated for one hour with a specific monoterpene (5 μL) diluted in 245 μL ethanol; the solution was applied on five small filter papers placed inside the lid and the glass plates were sealed with DuraSeal film. After one-hour incubation, the chemical was removed and plates were further incubated for 4 days at 28° C. The numbers of surviving cells with and without monoterpene treatments were counted.

mutant Δgcabc-g1 [5] = assay: Growth on YNB with monoterpenes as sole carbon source; format: cell-based, Grosmannia clavigera
Method: as §4, §5

G. clavigera WT [6] = assay: Growth on MEA with individual diterpenes; format: cell-based, Grosmannia clavigera; details: individual diterpene in MEA (0.1% per FIG. 8), pH ~8.0
Method: (§6) Growth rates were examined for G. clavigera WT and the mutant Δgcabc-g1 grown on MEA in the presence or absence of 200 μL of abietic acid, dehydroabietic acid and isopimaric acid as described in Example 3.A.2. Each diterpene was dissolved in a basic NaOH solution before being added into the MEA medium; the final pH of the medium was ˜8.0. Growth rates were calculated daily (mm/day). The results are shown in FIG. 8, which indicates growth rate in mm/24 hr for the average of three replicates. Error bar represents standard deviation.

mutant Δgcabc-g1 [7] = assay: Growth on MEA with individual diterpenes; format: cell-based, Grosmannia clavigera; details: individual diterpene in MEA (0.1% per FIG. 8), pH ~8.0
Method: as §6

O. piceae = assay: Growth on YNB with quinic acid as sole carbon source; format: cell-based, Ophiostoma piceae; details: YNB media
Description: The cluster contains seven genes that include a quinate permease, two regulatory genes, one acting as an activator and the other as a repressor, and the four genes of the quinate/shikamate catabolic pathway (Asch et al. (1991) Mol Gen Genet 230(3):337-344, Giles et al. J Hered 82(1):1-7). The latter four catabolic genes (OPP_08735 to OPP_08738) reveal that O. piceae uses quinic acid in wood as a carbon source. While this gene cluster is reported in many fungi, this gene cluster was not identified in G. clavigera. […] Finally, a secreted lipase (OPP_00605) with a predicted triglycerides degradation activity was identified; its abundance relative to the control mannose was at least 50-fold.

[8] = MEA, 200 μL monoterpene, 6 days

Row | Structure (SMILES) | growth delay of G. clavigera WT (G. clavigera WT [1]) | growth delay of mutant Δgcabc-g1 (mutant Δgcabc-g1 [2]) | Observation (A) Gc spore survival ([4]; {}) | growth with monoterpene as sole carbon source, wildtype G. clavigera (Wildtype G. clavigera) | Sc-ABC cells survived relative to Sc-V (Sc-ABC) | spore germination, mutant Δgcabc-g1 [4, 8] | Observation (B) Transformed Sc survival (Sc-ABC) | also measured
1 | CC1=CCC2CC1C2(C)C (racemic) [α-pinene] | not | 1 days | + (Difference between with and without GcABC-G1 is less than 50%, P-value < 0.01) | not able to utilize | not significantly different |  |  | fungal growth rate, G. clavigera WT (G. clavigera WT [1]): ~7 mm/day; fungal growth rate, mutant Δgcabc-g1 (mutant Δgcabc-g1 [2]): ~7 mm/day; spore germination inhibition, G. clavigera [3]: not inhibited; spore germination reduced, mutant Δgcabc-g1 ([4]; MEA, 200 μL monoterpene, 6 days, relative to non-treated control): 30%
2 | C=C(C)C1CC=C(C)CC1 (single isomer, unassigned; (+)) [(+)-limonene, R-(+)-limonene] | 1 days | 2 days |  | grew | approximately 7 times | completely prevent spore germination | +++ (Difference between with and without GcABC-G1 is more than 50%, P-value < 0.01) | growth rate of mutant Δgcabc-g1 lower than G. clavigera WT (mutant Δgcabc-g1 [2]): 52%; spore germination partially reduced, G. clavigera [3]: ~70%; Observation (A) Gc spore survival ([4]; GcABC-G1-dependent difference, Gc versus Δgcabc-g1): + (Difference between with and without GcABC-G1 is less than 50%, P-value < 0.01); fate of mutant Δgcabc-g1 on YNB with monoterpene (mutant Δgcabc-g1 [5]; 10 μL): survived, but did not grow; fate of mutant Δgcabc-g1 on YNB with monoterpene (mutant Δgcabc-g1 [5]; 200 μL): killed; relative inhibition of the yeast GcABC-G1 transformant by individual monoterpenoids (Sc-ABC): least inhibitory effect
3 | CC1=CCC2C(C1)C2(C)C (centres unmarked) [3-carene] | 1 days | 2 days | +++ (Difference between with and without GcABC-G1 is more than 50%, P-value < 0.01) |  | approximately 30 times | completely prevent spore germination | +++ (Difference between with and without GcABC-G1 is more than 50%, P-value < 0.01) | fungal growth rate, G. clavigera WT (G. clavigera WT [1]): 5 to 6 mm/day; fungal growth rate, mutant Δgcabc-g1 (mutant Δgcabc-g1 [2]): 5 to 6 mm/day; spore germination inhibition, G. clavigera [3]: not inhibited
4 | C=C1CC[C@H]2C[C@@H]1C2(C)C [(−)-β-pinene, (1S)-(−)-β-Pinene] |  | up to 3 days | + (Difference between with and without GcABC-G1 is less than 50%, P-value < 0.01) | not able to utilize | ~3 times | completely prevent spore germination | +++ (Difference between with and without GcABC-G1 is more than 50%, P-value < 0.01) | growth rate of mutant Δgcabc-g1 lower than G. clavigera WT (mutant Δgcabc-g1 [2]): 60%; spore germination partially reduced, G. clavigera [3]: ~70%; relative inhibition of the yeast GcABC-G1 transformant by individual monoterpenoids (Sc-ABC): strongest inhibition effect
5 | CC(C)C1=CC2=CC[C@@H]3[C@](C)(CCC[C@@]3(C)C(=O)O)[C@H]2CC1 [abietic acid] |  |  |  |  |  |  |  | growth inhibition, G. clavigera WT (G. clavigera WT [6]): only slightly inhibited growth; growth inhibition, mutant Δgcabc-g1 (mutant Δgcabc-g1 [7]): only slightly inhibited growth
6 | C=C[C@@]1(C)CC[C@H]2C(=CC[C@@H]3[C@]2(C)CCC[C@@]3(C)C(=O)O)C1 [isopimaric acid] |  |  |  |  |  |  |  | growth inhibition, G. clavigera WT (G. clavigera WT [6]): only slightly inhibited growth; growth inhibition, mutant Δgcabc-g1 (mutant Δgcabc-g1 [7]): only slightly inhibited growth
7 | O=C(O)[C@]1(O)C[C@@H](O)[C@@H](O)[C@H](O)C1 [quinic acid] |  |  |  |  |  |  |  | growth of O. piceae with quinic acid as sole carbon source (O. piceae): grows
